Test results published in patent US6703421B1, “Methods of using phenylmethylbenzoquinone and hydroquinone compounds for treatment of myocarditis, dilated cardiomyopathy and heart failure” (Daiichi Suntory Pharma Co., Ltd., priority 1999, dated 2004).

The compounds below were run on NF-κB (assay: NF-κB luciferase reporter assay in A549/NF-κBLuc cells). Details: A549/NF-κBLuc stimulated with IL-1β (1 ng/ml) or TNF-α (500 ng/ml) for 4 hours; dose-dependent; FIG. 1.
Format: cell-based, human
Procedure: Using lipofectamine (Lifetech Oriental K. K., Tokyo) according to the conventional method, human lung cancer cell line A549 cells (ATCC catalog no. CCL185), which are known to express hiNOS by cytokine stimulation, were co-transfected with pNFκB-Luc, which are plasmid controlled by a NF-κB binding consensus sequence, and pSV2neo (Clontech, U.S.A.), and then A549/NF-κBLuc, the cell that has stably introduced pNFκB-Luc, was selected by adding G418 sulfate (1 mg/ml, Lifetech Oriental K. K.) to the culture medium.
The luciferase activity was measured using the Luciferase Assay System (Promega, U.S.A.).

Row | SMILES | luciferase activity regulated by activation of NF-κB
1 | COC1=C(OC)C(=O)C(Cc2ccc(CCC(=O)N3CCSCC3)cc2)=C(C)C1=O [Prod. Ex. 4, N-[3-[4-(5,6-Dimethoxy-3-methyl-1,4-benzoquinon-2-ylmethyl)phenyl]propionyl]thimorpholine] | suppresses luciferase activity

Same assay, conditions: Homo sapiens; A549/NF-κBLuc, IL-1β (1 ng/ml) for 4 hours, luciferase activity; read-out: IC50 (μM) IL-1 stimulation

Row | IC50 [µM] | SMILES
2 | 10 | COC1=C(OC)C(=O)C(Cc2ccc(CCC(=O)N3CCSCC3)cc2)=C(C)C1=O [Prod. Ex. 4, N-[3-[4-(5,6-Dimethoxy-3-methyl-1,4-benzoquinon-2-ylmethyl)phenyl]propionyl]thimorpholine]
3 | 1 | COC1=C(OC)C(=O)C(Cc2ccc(CCC(=O)N3CCCCC3C)cc2)=C(C)C1=O (stereo not shown) [Prod. Ex. 83]
4 | 14 | COC1=C(OC)C(=O)C(Cc2ccc(CCC(=O)Nc3ccc(CC#N)cc3)cc2)=C(C)C1=O [Prod. Ex. 111]
5 | 16 | CCCCCc1ccc(NC(=O)CCc2ccc(CC3=C(C)C(=O)C(OC)=C(OC)C3=O)cc2)cc1 [Prod. Ex. 113]
6 | 2 | COC1=C(OC)C(=O)C(Cc2ccc(CCC(=O)N[C@@H](C)c3ccccc3)cc2)=C(C)C1=O [Prod. Ex. 120]
7 | 7 | COC1=C(OC)C(=O)C(Cc2ccc(CCC(=O)N[C@H](C)c3ccccc3)cc2)=C(C)C1=O [Prod. Ex. 121]
8 | 18 | COC1=C(OC)C(=O)C(Cc2ccc(CCC(=O)NC3CCCCCC3)cc2)=C(C)C1=O [Prod. Ex. 136]
9 | 20 | COC1=C(OC)C(=O)C(Cc2ccc(CCC(=O)N3CCC(O)(c4ccccc4)CC3)cc2)=C(C)C1=O [Prod. Ex. 151]
10 | 15 | COC1=C(OC)C(=O)C(Cc2ccc(CCC(=O)N3CCc4cc(OC)c(OC)cc4C3)cc2)=C(C)C1=O [Prod. Ex. 167]
11 | 9 | COC1=C(OC)C(=O)C(Cc2ccc(CCC(=O)N3CCC(C(C)=O)(c4ccccc4)CC3)cc2)=C(C)C1=O [Prod. Ex. 168]
12 | 43 | COC1=C(OC)C(=O)C(Cc2ccc(CCC(=O)N3CCc4ccccc4C3)cc2)=C(C)C1=O [Prod. Ex. 169]
13 | 36 | COC1=C(OC)C(=O)C(Cc2ccc(CCC(=O)NCCC(C)C)cc2)=C(C)C1=O [Prod. Ex. 173]
14 | 0.71 | Cc1csc2ncnc(NC3Cc4ccccc4C3)c12 [Prod. Ex. 190, 4-(2-Indanylamino)-5-methylthieno[2,3-d]pyrimidine]
15 | 0.064 | CC(C)c1csc2ncnc(NC3Cc4ccccc4C3)c12 [Prod. Ex. 211, 4-(2-Indanylamino)-5-isopropylthieno[2,3-d]pyrimidine]
16 | 0.15 | Cc1csc2ncnc(NC3Cc4ccc(Oc5ccccc5)cc4C3)c12 (stereo not shown) [Prod. Ex. 214, 4-(5-Phenoxyindan-2-yl)amino-5-methylthieno[2,3-d]pyrimidine]
17 | 0.072 | Cc1csc2ncnc(NC3Cc4ccc(C(=O)NCc5ccccc5)cc4C3)c12 (stereo not shown) [Prod. Ex. 220, N-Benzyl-2-(5-methylthieno[2,3-d]pyrimidine-4-yl)amino-5-indan Carboxamide]

Further lines, the compound ahead of its results:

Row | SMILES | IC50 [µM]
18 | COC1=C(OC)C(=O)C(Cc2cccc(C(=O)N3CCOCC3)c2)=C(C)C1=O [Prod. Ex. 44, N-[3-(5,6-Dimothoxy-3-methyl-1,4-benzoquinon-2-ylmethyl)benzoyl]morpholine] | 39
19 | COC1=C(OC)C(=O)C(Cc2ccccc2CCC(=O)NC(C)C)=C(C)C1=O [Prod. Ex. 73, N-[3-[2-(5,6-Dimethoxy-3-methyl-1,4-benzoquinon-2-ylmethyl)phenyl]propionyl]isopropylamine] | 34
20 | COC[C@H]1CCCN1C(=O)CCc1ccc(CC2=C(C)C(=O)C(OC)=C(OC)C2=O)cc1 [Prod. Ex. 76] | 14
21 | COC1=C(OC)C(=O)C(Cc2ccc(CCC(=O)N3CCC(C(N)=O)CC3)cc2)=C(C)C1=O [Prod. Ex. 79] | 13
22 | COC1=C(OC)C(=O)C(Cc2ccc(CCC(=O)N3CCC(C)CC3)cc2)=C(C)C1=O [Prod. Ex. 81] | 5
23 | COC1=C(OC)C(=O)C(Cc2ccc(CCC(=O)N3CCCC(C)C3)cc2)=C(C)C1=O (stereo not shown) [Prod. Ex. 85] | 5
24 | COC1=C(OC)C(=O)C(Cc2ccc(CCC(=O)Nc3ccc(OC)cc3)cc2)=C(C)C1=O [Prod. Ex. 94] | 1
25 | COC1=C(OC)C(=O)C(Cc2ccc(CCC(=O)Nc3ccccc3O)cc2)=C(C)C1=O [Prod. Ex. 96] | 17
26 | COC1=C(OC)C(=O)C(Cc2ccc(CCC(=O)Nc3ccc(OC)c(OC)c3)cc2)=C(C)C1=O [Prod. Ex. 103] | 10
27 | COC1=C(OC)C(=O)C(Cc2ccc(CCC(=O)NC(C)CO)cc2)=C(C)C1=O (stereo not shown) [Prod. Ex. 104] | 12
28 | CCOC(=O)C1CCCCN1C(=O)CCc1ccc(CC2=C(C)C(=O)C(OC)=C(OC)C2=O)cc1 (stereo not shown) [Prod. Ex. 105] | 16
29 | COC1=C(OC)C(=O)C(Cc2ccc(CCC(=O)N3CCC[C@H]3C(N)=O)cc2)=C(C)C1=O [Prod. Ex. 106] | 7
30 | COC1=C(OC)C(=O)C(Cc2ccc(CCC(=O)NC(C)CC(C)C)cc2)=C(C)C1=O (stereo not shown) [Prod. Ex. 128] | 19
31 | COC1=C(OC)C(=O)C(Cc2ccc(CCC(=O)N3CC(C)CC(C)C3)cc2)=C(C)C1=O (stereo not shown) [Prod. Ex. 137] | 7
32 | CCOC(=O)N1CCN(C(=O)CCc2ccc(CC3=C(C)C(=O)C(OC)=C(OC)C3=O)cc2)CC1 [Prod. Ex. 147] | 47
33 | COC1=C(OC)C(=O)C(Cc2ccc(CCC(=O)N3CCN(c4ccccc4)CC3)cc2)=C(C)C1=O [Prod. Ex. 148] | 25
34 | COC1=C(OC)C(=O)C(Cc2ccc(CCC(=O)N3CCC(O)(c4ccc(Cl)cc4)CC3)cc2)=C(C)C1=O [Prod. Ex. 154] | 28
35 | COC1=C(OC)C(=O)C(Cc2ccc(CCC(=O)N3CCN(c4ccccc4OC)CC3)cc2)=C(C)C1=O [Prod. Ex. 163] | 19
36 | COC1=C(OC)C(=O)C(Cc2ccc(CCC(=O)NC3CCCCC3)cc2)=C(C)C1=O [Prod. Ex. 175] | 19
37 | COC1=C(OC)C(=O)C(Cc2ccc(CCC(=O)Nc3ccc(O)cc3)cc2)=C(C)C1=O [Prod. Ex. 189] | 28

Same assay, conditions: Homo sapiens; A549/NF-κBLuc, TNF-α (500 ng/ml) for 4 hours, luciferase activity; read-out: IC50 (μM) TNF stimulation

Row | IC50 [µM] | SMILES
38 | 10 | COC1=C(OC)C(=O)C(Cc2ccc(CCC(=O)N3CCSCC3)cc2)=C(C)C1=O [Prod. Ex. 4, N-[3-[4-(5,6-Dimethoxy-3-methyl-1,4-benzoquinon-2-ylmethyl)phenyl]propionyl]thimorpholine]
39 | 1.1 | Cc1csc2ncnc(NC3Cc4ccccc4C3)c12 [Prod. Ex. 190, 4-(2-Indanylamino)-5-methylthieno[2,3-d]pyrimidine]
40 | 0.13 | CC(C)c1csc2ncnc(NC3Cc4ccccc4C3)c12 [Prod. Ex. 211, 4-(2-Indanylamino)-5-isopropylthieno[2,3-d]pyrimidine]
41 | 0.12 | Cc1csc2ncnc(NC3Cc4ccc(C(=O)NCc5ccccc5)cc4C3)c12 (stereo not shown) [Prod. Ex. 220, N-Benzyl-2-(5-methylthieno[2,3-d]pyrimidine-4-yl)amino-5-indan Carboxamide]

These compounds were tested on EMC virus-inoculated DBA/2 mice (viral myocarditis) (assay: Survival rate in murine viral myocarditis model). Details: 30 mg/kg intraperitoneally daily for 14 days, 0.5% gum arabic; FIG. 2.
Format: in vivo, mouse
Procedure: Viral myocarditis mice were prepared using the procedure described below in accordance with a known method (Shioi T. et al. (1997) J. Mol. Cell. Cardiol., 29, 2327-2334). Variant M (acquired from the American Type Culture Collection) was used for the EMC virus for inoculation and prepared to 100 pfu/ml in Eagle's MEM medium (Nissui Pharmaceutical). Four-week-old DBA/2 male mice were divided into two groups, and intraperitoneally inoculated with EMC virus at 10 pfu/animal. Test compound was then administered intraperitoneally and daily for 14 days under the following conditions to each group starting 3 hours after inoculation.
The test compound was used after dissolving in 0.5% aqueous gum arabic solution (3 mg/ml). In the present example, the compound of Production Example 4 was used in the test as the NF-κB inhibitor.
Test group (n=10): Administration of NF-κB inhibitor (Production Example 4) at 30 mg/kg body weight Control group (n=10): 0.5% aqueous gum arabic solution
The experiment was conducted in the following three groups using the same method as Example 2 and the compound of Production Example 7 for the NF-κB inhibitor. The test compound was used after dissolving in 10% aqueous dimethylsulfoxide solution (DMSO) (test group 1: 0.3 mg/ml, test group 2: 3 mg/ml). The survival rates were tested for the presence of a significant difference according to the Kaplan-Meier method, and statistical significance was defined as p<0.05.
Test group 1 (n=21): Administration of NF-κB inhibitor (Production Example 7) at 3 mg/kg body weight
Test group 2 (n=21): Administration of NF-κB inhibitor (Production Example 7) at 30 mg/kg body weight
Four-week-old DBA/2 male mice were inoculated with EMC virus using the same method as Example 2, and the test compound was administered orally and daily for 14 days under the following conditions to each group starting 2 hours after inoculation.
The test compound was used after dissolving in 10% aqueous sulfobutylcyclodextrin solution (3 mg/ml). In the present example, the compound of Production Example 44 was used in the test as the NF-κB inhibitor.
Test group (n=20): Administration of NF-κB inhibitor (Production Example 44) at 30 mg/kg body weight

Row | SMILES | survival rate
42 | COC1=C(OC)C(=O)C(Cc2ccc(CCC(=O)N3CCSCC3)cc2)=C(C)C1=O [Prod. Ex. 4, N-[3-[4-(5,6-Dimethoxy-3-methyl-1,4-benzoquinon-2-ylmethyl)phenyl]propionyl]thimorpholine] | improves the survival rate

Same assay, conditions: 30 mg/kg orally daily for 14 days, 10% sulfobutylcyclodextrin; FIG. 4

Row | SMILES | survival rate
43 | COC1=C(OC)C(=O)C(Cc2cccc(C(=O)N3CCOCC3)c2)=C(C)C1=O [Prod. Ex. 44, N-[3-(5,6-Dimothoxy-3-methyl-1,4-benzoquinon-2-ylmethyl)benzoyl]morpholine] | improves survival rate
